Drawing on publication PMC12172035, “The Thienopyrimidinone Gamhépathiopine Targets the QO Site of Plasmodium falciparum Cytochrome b” (ACS Infectious Diseases, 2025), this text covers inhibition for 1 molecule.

By inhibition is commonly meant the percentage by which the read-out fell short of the control.

The target in this test is T1, cytochrome b (Plasmodium falciparum, UniProt Q02768).
T1 construct: gene MT-CYB; native complex III in mitochondrial membrane fraction of P. falciparum 3D7 lysate; with complex III (cytochrome c1, Rieske iron-sulfur protein)
T1 sequence (Q02768 1-376): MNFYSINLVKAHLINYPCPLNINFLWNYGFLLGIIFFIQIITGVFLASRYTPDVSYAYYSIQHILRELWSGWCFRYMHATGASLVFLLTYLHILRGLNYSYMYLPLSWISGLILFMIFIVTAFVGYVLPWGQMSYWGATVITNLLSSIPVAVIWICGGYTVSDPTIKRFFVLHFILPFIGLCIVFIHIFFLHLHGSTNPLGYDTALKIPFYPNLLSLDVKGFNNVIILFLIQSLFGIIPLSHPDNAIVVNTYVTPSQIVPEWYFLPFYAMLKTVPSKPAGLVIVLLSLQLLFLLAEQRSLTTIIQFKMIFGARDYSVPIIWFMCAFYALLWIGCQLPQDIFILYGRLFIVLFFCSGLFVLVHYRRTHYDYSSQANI
Kind of test: complex III activity assay (decylubiquinol-driven cytochrome c reduction, […] nm) in P. falciparum membrane-enriched lysate; supported by resistance mutations in cytochrome b. The format is cell-based.

The structures appear in SMILES notation.

For `Cc1ccc(-c2cc3nc(NC(C)(C)C)[nH]c(=O)c3s2)cc1` [gamhépathiopine], the inhibition at 20 µM is above 93%.
